According to US7008949B2, “Heterocyclic compounds which inhibit leukocyte adhesion mediated by α4 integrins” (Elan Pharmaceuticals, Inc., priority 2003, dated 2006):

Tests used:
α4β1 Integrin = biological target: T1, α4β1 Integrin (Homo sapiens, UniProt P05556+P13612); experiment: α4β1 Integrin Adhesion Assay: Jurkat cell adhesion to human plasma fibronectin; format: cell-based; settings: Jurkat cells
T1 construct: endogenous in cells; host or cells: Jurkat cells
Procedure: 96 well plates (Costar 3590 EIA plates) were coated with human fibronectin (Gibco/BRL, cat #33016-023) at a concentration of 10 μg/mL overnight at 4° C. The plates were then blocked with a solution of bovine serum albumin (BSA; 0.3%) in saline. Jurkat™ cells (maintained in log phase growth) were labeled with Calcein AM according to the manufacturer's instructions, and suspended at a concentration of 2×10^6 cells/mL in Hepes/Saline/BSA. The cells were then exposed to test and control compounds for 30 minutes at room temperature before transfer to individual wells of the fibronectin coated plate. Adhesion was allowed to occur for 35 minutes at 37° C. The wells were then washed by gentle aspiration and pipetting with fresh saline. Fluorescence associated with the remaining adherent cells was quantified using a fluorescence plate reader at EX 485/EM 530.
Cell cultures were prepared by first splitting the stationary phase Jurkat™ cells at 1:10 on day one, and 1:2 on day two to perform assay on day 3. The cells split 1:10 on day one were split 1:4 on day 3 for a day 4 assay.
The assay plates were prepared by first making a working solution of Gibco/BRL Human Fibronectin (cat # 33016-023) in PBS++, at 10 μg/mL.
A Costar 3590 EIA plate was then coated with 50 μL/well for 2 hours at room temperature (thought it can also be left overnight at 4° C.). Finally the plate was asperated and blocked with Hepes/Saline Buffer, 100 μL/well, for 1 hour at RT followed by washing three times with 150 μL of PBS++.
Compound dilutions were accomplished by preparing 1:3 serial dilutions of compounds as follows. For each plate (4 compounds/plate) 600 μL were added to 4 Bio-Rad Titertubes in a Titertube rack. Enough compound was added to each appropriate tube to give a 2× concentration using methods well known in the art. Using Falcon Flexiplates, 100 μL of Hepes/Saline buffer or human serum were added to rows B through G. A multi-channel pipetter set to 180 μL was used to with four tips spaced evenly the pipetter. Each set of four tubes was mixed 5 times and 180 μL of 2× compound was transferred to the first column of each compound dilution in Row B, leaving Row A empty. 180 μL were added to the other wells in Row A. Serial dilutions were performed down the plate by transferring 50 μL to the next dilution and mixing 5 times, changing tips each time after mixing. Dilutions were stopped at Row F. Row G had no compound present.
A 20 μg/mL solution in Hepes/Saline buffer or human serum, of 21/6 antibody was the positive control and was set aside in a reagent trough to add to cell suspension plate.
The cell staining was accomplished by first harvesting the log-phase Jurkat™ cells by centrifugation in 50 mL tubes (1100 rpm for 5 minutes). The cells were resuspended in 50 mL PBS++, spun, and resuspend in 20 mL PBS++. The cells were stained by adding 20 μL of Calcein AM for 30 minutes R.T. The volume was brought to 50 mL with Hepes/Saline buffer and the cells were counted, spun, and resuspend to 2×10^6 cells/mL in Hepes/Saline buffer or human serum.
The compounds were incubated using the following procedure. In a new flexiplate, 65 μL of stained cells were added to Rows B through H. Then 65 μL of 2× compounds were added to the appropriate rows following the plate setup and mixed 3×. 65 μL of 2×-21/6 antibody were added to Row H and mixed 3×. Finally the plate was incubated at room temperature for 30 minutes.
Fibronectin adhesion was measured using a fluorescent plate reader at EX 485/EM 530 after the following work up procedure. After incubation, the cells were mixed 3× and 100 μL were transferred to the Fibronectin coated plates and incubated at 37° C. for about 35 minutes. Each plate was washed, row by row, by gently pipetting 100 μL of R.T. PBS++ down the sides of the wells and turning the plate 90 degrees to aspirate. This procedure was repeated for a total of 3 washes. Each well was filled with 100 μL after washing by pipetting down the side of the well. […]

[1] = Cassette dosing and serum analysis for determination of oral bioavailability; format: in vivo, rat; settings: male SD rats, oral cassette of 6 compounds, total dose 10 mg/kg, plasma at 4, 8, 12 h
Procedure: The oral bioavailability was screened by dosing rats with a cassette, i.e. mixture of 6 compounds per dosing solution. The cassette included 5 test articles and a standard compound, for a total dose of 10 mg/kg. Each compound/test article was converted to the sodium salt with equimolar 1 N NaOH and dissolved in water at 2 mg/mL. The cassette was prepared by mixing equal volumes of each of the six solutions. The cassette dosing solution was mixed well and then the pH was adjusted to 7.5–9. The dosing solution was prepared the day before the study and stirred overnight at room temperature.
Male Sprague Dawley (SD) rats from Charles River Laboratories, 6–8 weeks old were used in this screen. Rats were quarantined for at least one day and had continuous access to food and water. On the night before the administration of the cassette, the rats were fasted for approximately 16 h.
Four SD rats were assigned in each cassette. A single dose of the dosing solution was administered orally to each rat. The dosing volume (5 mL/kg) and time were recorded and rats were fed 2 h after dosing.
Blood samples were collected via cardiac puncture at the following time points: 4 h, 8 h and 12 h. Immediately prior to blood collection, rats were anesthetized with CO2 gas within 10–20 seconds. After the 12-hour samples were collected, the rats were euthanized via CO2 asphyxiation followed by cervical dislocation.
Blood samples were kept in heparinized microtainer tubes under sub-ambient temperature (4° C.) before they were processed. Blood samples were centrifuged (10000 rpm for 5 minutes) and plasma samples were removed and stored in a −20° C. freezer until analyzed for drug levels. Drug levels in the plasma were analyzed using the following protocol for direct plasma precipitation.
The in vivo plasma samples were prepared in a 1.5 mL 96-well plate, by adding, in order, 100 μL of the test plasma, 150 μL of methanol, followed by vortexing for 10–20 seconds. 150 μL of 0.05 ng/μL of an Internal Standard in acetonitrile were added and vortexed for 30 seconds.
The standard curve samples were prepared in a 1.5 mL 96-well plate, by adding, in order, 100 μL of control mouse plasma, followed by 150 μL of methanol and vortexing for 10–20 seconds. 150 μL of 0.05 ng/μL of an Internal Standard in acetonitrile were added and vortexed for 30 seconds. The samples were spiked with 0–200 ng (10 concentrations) of the compound of interest in 50% methanol to obtain a standard curve range of 0.5 ng/mL–2,000 ng/mL. Again, the sample was vortexed for 30 seconds.
The samples were then spun for 20–30 minutes at 3000 rpm in an Eppendorf microfuge before 80–90% of supernatant was transferred into a clean 96-well plate. The organic solvent was then evaporated until the samples were dry (under N2 at 40° C./30–60 min (ZymarkTurbovap)).
The residue was then dissolved in […] mobile phase (50% CH3OH/0.1% TFA). LC/MS/MS was then run using a PE-Sciex API-3000 triple quadurpole mass spectrometer (SN0749707), Perkin-Elmer, Series200auto-sampler, and shimadzu 10A pump. Acquisition was done with PE-Sciex Analyst (v1.1) and data analysis and quantification were accomplished using PE-Sciex Analyst (v1.1). A 5–50 μL sample volume was injected onto a reverse phase ThermoHypersil DASH-18 column (Keystone 2.0×20 mm, 5 μm, PN: 8823025-701) using a mobile phase of 25% CH3OH, 0.1% TFA-100% CH3OH, 0.1% TFA. The run time was about 8 minutes at a flow rate of about 300 μL/minutes.
The Area Under the Curve (AUC) was calculated using the linear trapezoidal rule from t=0 to the last sampling time tx (see Handbook of Basic Pharmacokinetics, Wolfgang A. Ritschel and Gregory L. Kearns, 5th ed, 1999). AUC^0→tx═S((Cn+Cn+1)/2))·(tn+1−tn)[(μg/mL)h]
In the case of the cassette dosing paradigm, samples at 4, 8 and 12 h post extravascular dosing, the AUC was calculated from t=0 to t=12 h.

[2] = IC50, Cell Adhesion to Human Plasma Fibronectin (With Human Serum), with human serum
[3] = IC50, Cell Adhesion to Human Plasma Fibronectin (Without the Human Serum), without human serum

T1 sequence (P13612 34-1032): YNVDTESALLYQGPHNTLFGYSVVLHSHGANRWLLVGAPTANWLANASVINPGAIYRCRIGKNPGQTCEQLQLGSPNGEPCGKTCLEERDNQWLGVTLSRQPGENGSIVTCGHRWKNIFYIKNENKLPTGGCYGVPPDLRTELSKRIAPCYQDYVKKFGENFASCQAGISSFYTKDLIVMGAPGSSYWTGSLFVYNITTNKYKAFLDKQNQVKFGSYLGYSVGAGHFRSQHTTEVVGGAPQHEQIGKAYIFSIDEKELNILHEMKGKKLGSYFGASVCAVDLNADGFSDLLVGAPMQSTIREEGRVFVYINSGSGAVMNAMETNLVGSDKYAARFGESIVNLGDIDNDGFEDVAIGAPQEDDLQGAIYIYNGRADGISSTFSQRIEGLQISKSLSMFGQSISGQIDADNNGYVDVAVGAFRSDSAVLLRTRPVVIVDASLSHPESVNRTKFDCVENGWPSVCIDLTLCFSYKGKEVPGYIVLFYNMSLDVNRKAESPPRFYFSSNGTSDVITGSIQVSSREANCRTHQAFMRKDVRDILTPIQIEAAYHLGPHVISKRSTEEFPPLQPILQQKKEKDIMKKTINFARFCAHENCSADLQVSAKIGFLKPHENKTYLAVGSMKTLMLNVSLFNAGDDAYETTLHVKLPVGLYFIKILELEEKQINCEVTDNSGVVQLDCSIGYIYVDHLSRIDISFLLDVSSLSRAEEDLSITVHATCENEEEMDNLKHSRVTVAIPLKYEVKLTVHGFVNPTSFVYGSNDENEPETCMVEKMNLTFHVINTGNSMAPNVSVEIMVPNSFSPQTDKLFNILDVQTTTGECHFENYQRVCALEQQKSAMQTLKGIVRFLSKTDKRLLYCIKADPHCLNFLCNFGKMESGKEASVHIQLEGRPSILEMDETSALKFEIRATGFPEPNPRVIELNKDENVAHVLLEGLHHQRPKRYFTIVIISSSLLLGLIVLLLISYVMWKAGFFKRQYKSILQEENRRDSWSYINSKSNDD
T1 sequence (P05556 21-798): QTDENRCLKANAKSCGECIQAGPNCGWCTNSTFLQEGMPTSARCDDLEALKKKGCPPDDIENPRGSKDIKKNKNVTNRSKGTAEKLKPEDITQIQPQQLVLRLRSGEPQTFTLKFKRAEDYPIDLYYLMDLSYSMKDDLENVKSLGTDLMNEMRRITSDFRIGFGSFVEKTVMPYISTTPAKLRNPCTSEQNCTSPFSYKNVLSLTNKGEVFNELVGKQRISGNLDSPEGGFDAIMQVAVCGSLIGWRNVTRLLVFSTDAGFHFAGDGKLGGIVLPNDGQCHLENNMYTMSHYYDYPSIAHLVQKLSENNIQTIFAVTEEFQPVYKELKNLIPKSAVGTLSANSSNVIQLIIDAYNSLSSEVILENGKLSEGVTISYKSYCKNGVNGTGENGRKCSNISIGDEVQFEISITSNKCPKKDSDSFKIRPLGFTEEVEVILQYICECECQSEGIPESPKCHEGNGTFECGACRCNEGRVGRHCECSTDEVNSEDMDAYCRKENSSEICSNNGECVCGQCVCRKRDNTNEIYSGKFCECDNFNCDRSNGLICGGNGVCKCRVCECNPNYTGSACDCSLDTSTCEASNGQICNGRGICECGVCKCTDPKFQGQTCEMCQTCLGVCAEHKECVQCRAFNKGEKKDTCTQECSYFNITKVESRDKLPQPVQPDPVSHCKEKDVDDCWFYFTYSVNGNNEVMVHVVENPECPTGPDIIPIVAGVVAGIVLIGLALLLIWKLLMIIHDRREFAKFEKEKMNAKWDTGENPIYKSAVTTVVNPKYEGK

Molecule	IC50, Cell Adhesion to Human Plasma Fibronectin (With Human Serum) (α4β1 Integrin; with human serum)	IC50, Cell Adhesion to Human Plasma Fibronectin (Without the Human Serum) (α4β1 Integrin; without human serum)	AUC (average AUC 0→12 h) [1]	IC50 (α4β1 Integrin; [2])	IC50 (α4β1 Integrin; [3])
2-{2-diethylamino-5-[(2-fluorobenzenesulfonyl)methylamino]pyrimidin-4-ylamino}-3-(4-dimethylcarbamoyloxyphenyl)propionic acid [Example 6]	0.3138 µg/mL	0.000511 µg/mL	0.6538 (μg/mL)h		
2-{2-diethylamino-5-[(3,4-difluorobenzenesulfonyl) ethylamino]pyrimidin-4-ylamino}-3-(4-dimethylcarbamoyloxyphenyl) propionic acid [Example 12]	0.06 µg/mL	0.003 µg/mL	0.8447 (μg/mL)h		
2-{2-diethylamino-5-[(4-chlorobenzenesulfonyl)ethylamino] pyrimidin-4-ylamino}-3-(4-dimethylcarbamoyloxyphenyl)propionic acid [Example 13]	0.075 µg/mL	0.004 µg/mL	1.5806 (μg/mL)h		
2-{2-diethylamino-5-[(4-chlorobenzenesulfonyl)methylamino]pyrimidin-4-ylamino}-3-(4-dimethylcarbamoyloxyphenyl)propionic acid [Example 2]	0.317 µg/mL	0.002 µg/mL	1.8689 (μg/mL)h		
2-{2-diethylamino-5-[(4-fluorobenzenesulfonyl)allylamino]pyrimidin-4-ylamino}-3-(4-dimethylcarbamoyloxyphenyl)propionic acid [Example 22]	0.02529 µg/mL	0.001506 µg/mL	0.6297 (μg/mL)h		
2-{2-diethylamino-5-[(4-fluorobenzenesulfonyl)ethylamino]pyrimidin-4-ylamino}-3-(4-dimethylcarbamoyloxyphenyl)propionic acid [Example 9]	0.106 µg/mL	0.001 µg/mL	1.564 (μg/mL)h		
2-{2-diethylamino-5-[(4-fluorobenzenesulfonyl)methylamino]pyrimidin-4-ylamino}-3-(4-dimethylcarbamoyloxyphenyl)propionic acid [Example 1]	0.318 µg/mL	0.002 µg/mL	2.3308 (μg/mL)h		
2-{2-diethylamino-5-[(benzenesulfonyl)methylamino]pyrimidin-4-ylamino}-3-(4-dimethylcarbamoyloxyphenyl)propionic acid [Example 5]	1.851 µg/mL	0.001414 µg/mL	0.9577 (μg/mL)h		
CCN(CC)c1ncc(N(C)S(=O)(=O)c2ccc(F)c(F)c2)c(N[C@@H](Cc2ccc(OC(=O)N(C)C)cc2)C(=O)O)n1 [Example 3]			1.5483 (μg/mL)h	251 nM	3.3 nM
CCN(CC)c1ncc(N(C)S(=O)(=O)c2ccc(Cl)c(Cl)c2)c(N[C@@H](Cc2ccc(OC(=O)N(C)C)cc2)C(=O)O)n1 [Example 4]			0.5965 (μg/mL)h	625 nM	6.25 nM
CCN(CC)c1ncc(N(C)S(=O)(=O)c2cccc(F)c2)c(N[C@@H](Cc2ccc(OC(=O)N(C)C)cc2)C(=O)O)n1 [Example 7, 2-{2-diethylamino-5-[(3-fluorobenzenesulfonyl)methylaminol]pyrimidin-4-ylamino}-3-(4-dimethylcarbamoyloxyphenyl) propionic acid]			0.717 (μg/mL)h	997 nM	1.39 nM
CCN(CC)c1ncc(N(C(C)C)S(=O)(=O)c2ccc(F)cc2)c(N[C@@H](Cc2ccc(OC(=O)N(C)C)cc2)C(=O)O)n1 [Example 8]			0.5088 (μg/mL)h	264 nM	4.87 nM
CCN(CC)c1ncc(N(C(C)C)S(=O)(=O)c2ccc(F)c(F)c2)c(NC(Cc2ccc(OC(=O)N(C)C)cc2)C(=O)O)n1 (stereo not drawn) [Example 10, 2-{2-diethylamino-5-[(3,4-difluorobenzenesulfonyl)isopropylamino]pyrimidin-4-ylamino}-3-(4-dimethylcarbamoyloxyphenyl) propionic acid]			0.1215 (μg/mL)h	404 nM	7.33 nM
